Here are results for one compound from article PMC12067128, “Macrocyclization: Enhancing Drug-like Properties of Discoidin Domain Receptor Kinase Inhibitors” (ACS Medicinal Chemistry Letters, 2025).

Data set [1] is described as follows: EPSA polarity descriptor. Format: physicochemical. Conditions: almost fully nonpolar environment; polarity in nonpolar environment. As to the method:
(§1) Polarity is quantified by two descriptors: EPSA and Δlog kw ^IAM. The first is measured in an almost fully nonpolar environment, and the second describes polarity in an aqueous medium. […] This is also in line with the higher solubility of KIMCs over 1.

Data set [2] is described as follows: log kW IAM (immobilized artificial membrane chromatography). Format: physicochemical. Particulars: lipophilicity descriptor, phospholipid interaction. The text has this:
(§2) Lipophilicity has been obtained in four different systems. BRlogD and ChromlogD are chromatographic surrogates of log Doct and, despite showing different values, are linearly correlated (Figure S4). Log k′ 80 PLRP-S is a surrogate of log Dtol. Log kw ^IAM mimics the interaction between the compounds and the phospholipids of membranes. The combination of the experimental lipophilicity descriptors is essential to evaluate lipophilicity in different regions of the membrane bilayer. This complete lipophilicity profile may give an idea of the permeability potential of poorly soluble compounds for which standard permeability measurements are unreliable. […] This is supported by its low IC50 value in the cell-based assay.

The nature of data set [3]: Chamelogk chameleonicity descriptor. The format is physicochemical. Particulars: >0.6 = chameleons, <0.6 = non-chameleons. How it is done: Finally, chameleonicity was measured with the recently described Chamelogk method (Table ), where 0.6 is the threshold value to distinguish chameleons from non-chameleons.
Data set [4] in a line: ChromLogD chromatographic lipophilicity. The format is physicochemical. Conditions: C18 column, pH 7.4. How it is done:
The chromatographic method was based on the differential retention times of test compounds on a C18 column (Luna C18(2), 30 x 2mm, […], 100 Å) under controlled liquid chromatography conditions, comparing retention times with those of standards (Benzyl Alcohol, p-Nitrophenol, Bromobenzene, Anthracene) with known log D values. Stock solutions (10 mM in DMSO) of test compounds were diluted to a final concentration of 1 mM. The mobile phases consisted of A (20mM Ammonium Acetate buffered to pH 7.4 with ammonia hydroxide) and B (ACN). The LC gradient profile was the following: a linear increase to 90% B during 0.0 to 1.3 min, hold at 90 % B during 1.3 to 1.53 min then back to 0.0% B from 1.53 to 1.60 min, hold at 0% B until the end of the run (2.00 min). 1 μL of the sample volume was injected, using a flow rate of 0.5 mL/min and a column temperature of 40°C. All compounds were detected by UPLC/MS analysis using a a Waters ACQUITY UPLC equipped with a Photo Diode Array (PDA) detector coupled with a Waters ACQUITY QDa single quadrupole mass spectrometer with an Electrospray ionization (ESI) source.
The retention times were obtained by processing data in Waters Openlynx. The standards are then plotted in excel and the best fit line was used as the basis for calculating the unknown LogD values from the retention times of the peaks obtained.

The target of data set [5] is T1, DDR1 (Homo sapiens, UniProt Q08345).
T1 construct: ProLink™ (PK) tagged full-length DDR1b; host or cells: U2OS human osteosarcoma cells (PathHunter U2OS DDR1)
Nature of the data set: PathHunter U2OS DDR1 Functional Assay (DDR1 cellular assay). Format: cell-based. Particulars: U2OS PathHunter cells, collagen II stimulation; read-out: Cell DDR1 IC50. How it is done: page 17: In vitro Biology DDR1 cellular assay The activity of Discoidin Domain-containing Receptor protein kinase (DDR) inhibitors was determined using the PathHunter® U2OS DDR1 Functional Assay which employs Enzyme Fragment Complementation (EFC) technology, where the β-galactosidase (β-gal) enzyme is split into two fragments, ProLink (PK) and Enzyme Acceptor (EA). Independently these fragments […] β-gal enzyme. In the PathHunter® U2OS DDR1 Functional Assay, the U2OS human osteosarcoma cell line is modified to co-express a ProLinkTM (PK) tagged full-length DDR1b and an Enzyme Acceptor (EA) tagged SH2 domain. Collagen II, as a ligand, induces activation of DDR1b which results in cross-phosphorylation. The SH2-EA fusion protein then specifically binds the phosphorylated receptor resulting in complementation of the two fragments of β-gal and formation of a functional enzyme. β-gal activity is then quantitatively detected using a chemiluminescent substrate. PathHunter® Human U2OS DDR1 cells were prepared in AssayCompleteTM Cell Plating 16 Reagent (DiscoverX 93-0563R16A) and plated at 5000 cells/well in a 384-well white, clear-bottom, sterile plate (ThermoFisher 142762) and incubated for 90 minutes at 37 °C, 5% CO2. Test compounds were serially diluted from a top concentration of 10 mM (1000x final assay concentration) directly in a 384-well low-volume polypropylene plate (Greiner bio-one 784201) using an Echo 555 acoustic liquid handler (Labcyte). Test compounds were diluted in AssayCompleteTM Cell Plating 16 Reagent then added to cells using an Integra ViaFlow384 electronic reagent dispenser and pre-incubated at 37 °C, 5% CO2 for 30 minutes. Following compound pre-incubation, the cells were stimulated with 20 μg/ml Bovine Type II Collagen (DiscoverX 92-1090) with incubation for 20 hours at 37 °C, 5% CO2. Next, PathHunter Detection Reagent (DiscoverX 93-[…]) was added to the cells, incubated for 60 minutes at 25 °C in the dark, prior to capturing the chemiluminescent signal on a PHERAstar (BMG LABTECH). The percentage of inhibition was calculated for each concentration of compound using a 0.1% DMSO vehicle/Collagen II control response as a 0% inhibition and a 10 nM Dasatinib/Collagen II positive 17 page 18: control response as a 100% inhibition. The final assay concentration of the top of the test compound CRC was 10 μM. 18

Data set [6] is described as follows: Kinetic solubility. The format is physicochemical. As to the method: Using a stock solution of test compound in 100% DMSO, duplicate dilutions were prepared at a nominal concentration of 200 µM in 0.1 M phosphate buffered saline (PBS) at pH 7.4, with a 2% final DMSO content. Test compound calibration standards were prepared at 200 µM and 10 µM in 100%
DMSO. The PBS and DMSO dilutions were equilibrated on a shaking platform at room temperature for two hours prior to filtration using a Multiscreen HTS solubility filter plate (Millipore). Filtrates were analysed by LC-UV-MS and the concentration of compound in PBS filtrate determined by comparing the UV absorbance peak with that of the two DMSO calibration standards. Mass spectrometry will be used to confirm the presence of the expected molecular ion in the UV peak measured. The effective range of the assay is 5 – 200 µM. […]

A short description of data set [7]: Microsomes stability (clearance in human microsomes). The format is in vitro ADME. Particulars: liver microsomes, pH 7.4, 0.8 mg protein/mL, 1 mM NADPH, 37 °C, read-out: CLint h mic (clearance in human microsomes). As to the method: values in Caco-2 assay were: <10 nm/s = low level; 10-50 nm/s = medium level; >50 nm/s = high […]
Test compounds were incubated, in duplicate, at the concentration of 1 μM with liver microsomes (0.8 mg protein/mL) in Dulbecco’s buffer (pH 7.4) at 37 °C in the presence of 1 mM NADPH. At different time points (0, 5, 10, 20, 30, and 60 min), 50 μL aliquots of the incubates were taken, added with 80 μL of ice-cold acetonitrile, and 20 μL of 1 μM warfarin in acetonitrile (injection check) to stop the reaction, and samples were centrifuged. The supernatants were analyzed by LC−MS/MS for unchanged compounds. Test compounds were incubated with liver microsomes in Dulbecco’s buffer in the absence of NADPH for 0 and 60 min, as control. Midazolam at the concentration of 1 μM, was incubated with microsomes as positive control for phase I activity of microsomes. Control samples were processed as test compound samples.
(Liver microsomes are vesicles of endoplasmic reticulum, rich in cytochrome P450 enzymes.)

A short description of data set [8]: Δlog kW IAM polarity descriptor. The format is physicochemical. Conditions: polarity in aqueous medium. As to the method:
as §1

A short description of data set [9]: BRlogD chromatographic lipophilicity. Format: physicochemical. Conditions: XBridge Shield RP18, pH 7.0, 60% acetonitrile.
Method: The original method was described in a previous paper.e Briefly, a HPLC Thermo Fisher Scientific Dionex Ultimate 3000 instrument equipped with a Low-Pressure Mixing Gradient Pump LPG-3400 SD, ACC-3000 autosampler with termostatable column compartment, a DAD-3000 RS Detector and Chromeleon Data System Version 7.2.10 was used. Deionized water and HPLC grade acetonitrile were used throughout. The mobile phases consisted of 20 mM ammonium acetate at pH 7.0 and acetonitrile 60% v/v. Samples were dissolved in a 1:1 mixture of buffer/acetonitrile in the concentration range of 50–100 ug/mL. A 10uL volume of each solution was injected at 30°C and flow rate was 1 mL/min. The dead time, t0, was determined by monitoring the baseline disturbance.
retention time (tR) was measured on a XBridgeTM Shield RP18 (Waters, 5cm x 4.6 mm, 5 µm particle size, 130Å pore size). Isocratic log k’ (capacity factor k’ = (tR - t0)/t0) values were measured. The relationship between log D and log k’60 has been determined previously and is reported below (Eq.
We termed this log D as BRlogD.
A short description of data set [10]: log k'80 PLRP-S chromatographic descriptor. Format: physicochemical. Particulars: surrogate of log Dtol.
Text: as §2

T1 sequence (Q08345 19-913): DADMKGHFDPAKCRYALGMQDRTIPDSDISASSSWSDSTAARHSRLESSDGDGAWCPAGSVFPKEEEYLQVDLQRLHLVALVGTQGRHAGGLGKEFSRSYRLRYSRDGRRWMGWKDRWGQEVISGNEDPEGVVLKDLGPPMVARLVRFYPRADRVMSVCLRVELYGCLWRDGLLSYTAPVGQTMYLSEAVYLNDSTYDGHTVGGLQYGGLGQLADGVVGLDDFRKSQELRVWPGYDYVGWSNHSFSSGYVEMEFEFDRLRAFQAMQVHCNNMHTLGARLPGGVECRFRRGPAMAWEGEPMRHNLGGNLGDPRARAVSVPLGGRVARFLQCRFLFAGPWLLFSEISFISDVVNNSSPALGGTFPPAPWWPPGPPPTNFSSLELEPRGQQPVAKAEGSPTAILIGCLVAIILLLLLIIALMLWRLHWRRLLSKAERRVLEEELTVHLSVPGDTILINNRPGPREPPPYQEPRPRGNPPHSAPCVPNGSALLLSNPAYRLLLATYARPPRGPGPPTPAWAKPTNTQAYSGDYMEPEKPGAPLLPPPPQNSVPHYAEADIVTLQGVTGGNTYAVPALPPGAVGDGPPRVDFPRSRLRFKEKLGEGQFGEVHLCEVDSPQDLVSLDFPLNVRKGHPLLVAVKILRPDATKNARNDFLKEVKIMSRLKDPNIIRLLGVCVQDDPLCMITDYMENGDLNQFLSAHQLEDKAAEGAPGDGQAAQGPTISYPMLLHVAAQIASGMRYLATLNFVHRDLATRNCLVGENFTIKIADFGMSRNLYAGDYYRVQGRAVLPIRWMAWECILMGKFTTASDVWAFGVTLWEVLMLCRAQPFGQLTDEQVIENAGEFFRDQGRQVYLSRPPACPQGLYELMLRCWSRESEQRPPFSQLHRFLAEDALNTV

By chromatographic logD is commonly meant a lipophilicity value derived from retention on a column. Usually IC50 stands for the point on the concentration scale where inhibition reaches its midpoint. The term kinetic solubility denotes the concentration staying in solution when a stock, usually in DMSO, is diluted into the medium. In data set [1], `Cc1ccc(C(=O)Nc2cccc(C(F)(F)F)c2)cc1-c1cc2nc(Nc3cnn(C)c3)ncc2[nH]1` [Compound 1] gave an EPSA of 106 A^2. In addition, in data set [2], the “log kW^IAM” value was determined as 2.53. The Chamelogk in [3] is recorded as 0.99. Moreover, the chromatographic logD in data set [4] is 2.92. Besides, in data set [5], the IC50 was determined as 3 nM. The “kinetic solubility (in words)” value in data set [6] is recorded as “almost insoluble”. Moreover, in data set [6] (phosphate buffered saline, PBS pH 7.4, 2% DMSO, 2 h room temperature, assay range 5-200 µM, read-out: KS (kinetic solubility)), the kinetic solubility at 2 h was below 5 µM. Moreover, the microsomal CLint at 1 h, 1 µM in data set [7] stood at 19 ± 2.1 µL/min/mg. Moreover, in [8], the “Δlog kW^IAM” value is 0.47. For the same compound, in [9], the BRlogD was found to be 3.36. Moreover, in data set [10], the “logk'80 PLRP-S” value is -0.3.
